The supplement of paper PMC13380429

Tests used:
Conditions in all cases: 72 h
Caco-2 [1] = test: relative viability EC50 (midpoint between 100% and the lowest measured viability); higher = less toxic
HepG2 [2] = test: as above
U2OS [3] = test: as above
Vero E6 [4] = test: as above
Caco-2 [5] = test: drug sensitivity score (DSS) for viability; higher = more toxic; extreme values may be limits of the assay
HepG2 [6] = test: as above
U2OS [7] = test: as above
Vero E6 [8] = test: as above
Caco-2 [9] = test: cell viability relative to DMSO; higher = less toxic
HepG2 [10] = test: as above
U2OS [11] = test: as above
Vero E6 [12] = test: as above
Calu-3 [13] = test: relative viability EC50 (midpoint between 100% and the lowest measured viability); higher = less toxic
Calu-3 [14] = test: drug sensitivity score (DSS) for viability; higher = more toxic; extreme values may be limits of the assay
Calu-3 [15] = test: cell viability relative to DMSO; higher = less toxic

SMILES	relative viability EC50 (Caco-2 [1])	relative viability EC50 (HepG2 [2])	relative viability EC50 (U2OS [3])	relative viability EC50 (Vero E6 [4])	drug sensitivity score (Caco-2 [5])	drug sensitivity score (HepG2 [6])	drug sensitivity score (U2OS [7])	drug sensitivity score (Vero E6 [8])	cell viability (Caco-2 [9]; 1 nM)	cell viability (Caco-2 [9]; 10 nM)	cell viability (Caco-2 [9]; 100 nM)	cell viability (Caco-2 [9]; 1000 nM)	cell viability (Caco-2 [9]; 10000 nM)	cell viability (HepG2 [10]; 1 nM)	cell viability (HepG2 [10]; 10 nM)	cell viability (HepG2 [10]; 100 nM)	cell viability (HepG2 [10]; 1000 nM)	cell viability (HepG2 [10]; 10000 nM)	cell viability (U2OS [11]; 1 nM)	cell viability (U2OS [11]; 10 nM)	cell viability (U2OS [11]; 100 nM)	cell viability (U2OS [11]; 1000 nM)	cell viability (U2OS [11]; 10000 nM)	cell viability (Vero E6 [12]; 1 nM)	cell viability (Vero E6 [12]; 10 nM)	cell viability (Vero E6 [12]; 100 nM)	cell viability (Vero E6 [12]; 1000 nM)	cell viability (Vero E6 [12]; 10000 nM)	relative viability EC50 (Calu-3 [13])	drug sensitivity score (Calu-3 [14])	cell viability (Calu-3 [15]; 1 nM)	cell viability (Calu-3 [15]; 10 nM)	cell viability (Calu-3 [15]; 100 nM)	cell viability (Calu-3 [15]; 1000 nM)	cell viability (Calu-3 [15]; 10000 nM)
O=C(O)CN1C(=O)c2cccc3cccc(c23)C1=O [alrestatin]	> 10 µM	> 10 µM	> 10 µM	> 10 µM	0	0	0	0	99%	95.2%	101%	96.7%	107%	95.4%	102%	90.7%	98%	101%	98.9%	96.6%	96.1%	102%	105%	94.8%	102%	105%	96.6%	101%	–	–	–	–	–	–	–
OC[C@H]1O[C@@H](Oc2ccc(O)cc2)[C@H](O)[C@@H](O)[C@@H]1O [arbutin]	> 10 µM	> 10 µM	> 10 µM	> 10 µM	0	0	0	0	95.7%	101%	105%	96%	103%	99.2%	109%	98.6%	105%	103%	97.9%	102%	102%	97.5%	108%	98.6%	98%	91.6%	94.6%	94.5%	–	–	–	–	–	–	–
Cc1ccc(C)c([C@H](O)CNC(C)C)c1 [benzenemethanol,-2,5-dimethyl-[[(1-methylethyl)amino]methyl]]	> 10 µM	> 10 µM	> 10 µM	> 10 µM	0	0	0	0	102%	96.3%	92.6%	93.7%	96.3%	111%	92.6%	101%	100%	104%	101%	99.4%	102%	99.2%	102%	103%	107%	98.4%	103%	101%	–	–	–	–	–	–	–
O=C(Cn1ccnc1[N+](=O)[O-])NCc1ccccc1 [benznidazole]	> 10 µM	> 10 µM	> 10 µM	> 10 µM	0	0	0	0	98%	98.8%	96.4%	93.2%	96%	97.3%	95.9%	93.7%	94.4%	94.2%	98%	97.3%	92.4%	90%	99.8%	97.3%	98.5%	96.4%	101%	98.1%	–	–	–	–	–	–	–
CC(=O)O[C@]1(C(C)=O)CC[C@H]2[C@@H]3C=C(Cl)C4=CC(=O)CC[C@]4(C)[C@H]3CC[C@@]21C [chlormadinone-acetate]	> 10 µM	> 10 µM	> 10 µM	> 10 µM	0	0	0	0	101%	106%	115%	98.8%	103%	98.1%	98.8%	100%	92%	112%	97.2%	92.7%	96.1%	90.6%	95%	93.2%	96.9%	91.9%	92.5%	90%	–	–	–	–	–	–	–
C[N+]12CCC(CC1)C(OC(=O)C(O)(c1ccccc1)c1ccccc1)C2 (centres undefined) [clidinium]	> 10 µM	> 10 µM	–	> 10 µM	0	0	–	0	102%	112%	106%	95.4%	103%	92.5%	108%	90.6%	104%	99.7%	–	–	–	–	–	102%	102%	101%	102%	99.8%	–	–	–	–	–	–	–
CC(C)/N=c1\cc2n(-c3ccc(Cl)cc3)c3ccccc3nc-2cc1Nc1ccc(Cl)cc1 [clofazimine]	–	–	> 10 µM	> 10 µM	3.8	1.9	0	0	106%	101%	98.3%	84.5%	60.4%	94.1%	105%	89.8%	97%	68.3%	98%	100%	101%	98.1%	91.6%	101%	99.6%	103%	104%	91.3%	> 10 µM	0	101%	97.6%	91.3%	98.1%	94.4%
CN(C)CCOC(=O)C(c1ccccc1)C1(O)CCCC1 (centres undefined) [cyclopentolate]	> 10 µM	> 10 µM	> 10 µM	> 10 µM	0	0	0	0	96.9%	97.6%	93%	100%	102%	103%	115%	97.6%	111%	91.3%	100%	96.5%	98.4%	97.9%	98.5%	99.1%	103%	102%	101%	107%	–	–	–	–	–	–	–
Oc1cc(O)c2cc(O)c(-c3cc(O)c(O)c(O)c3)[o+]c2c1 [delphinidin]	> 10 µM	> 10 µM	> 10 µM	> 10 µM	0.5	0	0	0	101%	95.5%	90.8%	94.6%	83.4%	104%	102%	103%	114%	96.5%	103%	104%	98.1%	102%	99.2%	100%	98.8%	98.3%	92.7%	97.9%	–	–	–	–	–	–	–
COc1ccc(CN(CCN(C)C)c2ccccn2)cc1 [mepyramine]	–	> 10 µM	> 10 µM	> 10 µM	–	0	0	0	–	–	–	–	–	99.8%	95.7%	91%	102%	92.8%	98%	99.8%	103%	101%	95.9%	95.7%	93.1%	95.1%	98.5%	102%	> 10 µM	0	101%	113%	112%	106%	93%
CCCOc1ccc(S(=O)(=O)N2CCN(CCO)CC2)cc1-c1nc2c(CCC)cn(CC)c2c(=O)[nH]1 [mirodenafil]	> 10 µM	> 10 µM	> 10 µM	> 10 µM	0.1	0	0	0	105%	111%	96.5%	107%	85.6%	105%	98.1%	108%	100%	99.7%	102%	104%	99.6%	103%	96.3%	100%	101%	101%	94.9%	102%	–	–	–	–	–	–	–
O=C(OCC(COC(=O)c1cccnc1)(COC(=O)c1cccnc1)COC(=O)c1cccnc1)c1cccnc1 [niceritrol]	> 10 µM	> 10 µM	> 10 µM	–	0	0	0	1.5	93.9%	88.4%	92.7%	93.3%	86.9%	93.7%	94.1%	92.7%	98.2%	101%	102%	104%	101%	101%	98.8%	92.6%	103%	96.8%	96.9%	73.8%	> 10 µM	0	98.5%	108%	101%	106%	115%
CNCCC=C1c2ccccc2CCc2ccccc21 [nortriptyline]	–	–	> 10 µM	> 10 µM	1.6	1	0	1.6	108%	86.1%	96.4%	97.7%	70%	110%	106%	112%	119%	65%	99.5%	96.8%	98.1%	97.4%	93.8%	106%	106%	102%	90%	79.8%	> 10 µM	0.9	100%	98.7%	99.4%	96.5%	82.1%
CCCCCCCCCCCCCCCCCCO [octadecan-1-ol]	–	–	–	> 10 µM	–	–	–	0	–	–	–	–	–	–	–	–	–	–	–	–	–	–	–	99.2%	103%	102%	94.2%	107%	–	–	–	–	–	–	–
C=CC(=O)Nc1cccc(Oc2nc(Nc3ccc(N4CCN(C)CC4)cc3)nc3ccsc23)c1 [olmutinib]	–	–	–	2.49 µM	3.2	2.6	3.2	6.5	99.2%	98.3%	90.9%	83.5%	69%	95%	93.5%	100%	99.6%	51%	100%	101%	96.6%	92.7%	59.4%	100%	98.7%	96.7%	92.2%	5.1%	1.35 µM	8.3	110%	105%	89%	68.4%	14.8%
CN(C)CCN(Cc1ccccc1)c1ccccn1 [tripelennamine]	–	> 10 µM	–	> 10 µM	–	1.8	–	0	–	–	–	–	–	108%	111%	101%	89.7%	78.9%	–	–	–	–	–	110%	110%	105%	102%	97.1%	–	–	–	–	–	–	–
N[C@@H]1[C@H]2CN(c3nc4c(cc3F)c(=O)c(C(=O)O)cn4-c3ccc(F)cc3F)C[C@@H]12 [trovafloxacin]	–	3.6 µM	> 10 µM	> 10 µM	3.1	3.4	0	0	95.6%	122%	84.7%	85.5%	71.5%	115%	104%	102%	106%	29.9%	101%	108%	99.8%	105%	89.9%	95.7%	98.8%	102%	110%	98.2%	–	2.1	102%	103%	92.4%	97.6%	64.1%
